According to patent publication US20250090875A9, “IMMUNOSTIMULATORY COMPOUNDS AND CONJUGATES” (Seagen Inc., priority 2021, published 2025):
“Also recorded” adds a separate entry of the source.

Tests used:
CT26 tumors = type: in vivo; details: targeted ADC, intraperitoneal, every 7 days, 3 doses; for mice surviving at the end of the study: 6 mice per group
Text: This example covers in vivo assessments of anti-tumor activity of ADCs with TLR7/8 agonists. An in vivo syngeneic system was used to assess the ability of the ADCs having TLR ⅞ agonists as the payload to induce immune responses and drive an anti-tumor immune response using a subcutaneous, heterotopic mouse colon carcinoma model (a CT26 system). Female Balb/c mice were implanted with 1×10^5 CT26 cells sub-cutaneously in the flank on day 0. When mean tumor size of 100 mm^3 (measured using the formula: Volume (mm^3)=0.5*Length*Width^2 where length is the longer dimension) was reached, the mice were randomized into treatment groups of 6 mice per group. Animals were then treated intraperitoneally with the indicated treatment every 7 days, for 3 doses total. Stock concentrations of the ADCs were diluted to the appropriate concentration and injected into animals in 100 μL volumes. Tumor length and width and mouse weights were measured throughout the study and tumor volume was calculated using the formula above. Animals were followed until tumor volume reached 1000 mm^3, when animals were then euthanized.

Renca tumors = assay: Renca kidney carcinoma model in Balb/c mice; type: in vivo, mouse; details: targeted or non-targeted conjugates, N1 vs C4 linkage, different linkers, with or without PEG
Experimental: The difference in anti-tumor activity of the S18a and S18b conjugates was also assessed in the Renca kidney model. In this model, mice bearing Renca tumors were treated q7dx3 when tumors reached ˜100 mm^3 as indicated, and followed for mean group tumor growth (FIG. 14, top) and survival (FIG. 14, bottom) over time.
This example covers cancer treatment with EphA2 targeted TLR agonists. […] Balb/c mice were implanted with Renca tumor cells and when cells reached 100 mm^3 they were treated Q7dx3 treatments with 2.4 mg/kg of the indicated IDC, either non targeting isotype or an EphA2 targeting mAb.

primary human PBMCs = assay: Cytokine induction in primary human PBMCs by small molecule TLR7/8 agonists (Luminex); type: cell-based; details: for potency and activity of cytokine induction (IL6, TNFα, MCP1, IP10): ranking; for potency to activate human PBMCs (IL6, IL1b, MIP1b, TNFα): compared with S18a, FIG. 29
Experimental: This example covers dose dependent human immune cell activation by small molecule TLR7/8 agonists. Primary human PBMCs were isolated from peripheral whole blood from human donors and were subjected to treatment with increasing concentrations of the agonists diluted in PBS. Cell culture supernatants were harvested 24 h after treatment and analyzed for induction of cytokines via multiplex ELISAs (Luminex).
Several small molecule TLR7/8 agonists were assessed for their ability to activate human immune cells in a dose dependent manner. Primary human PBMCs were isolated from peripheral whole blood from human donors and were subjected to treatment with increasing concentrations of the agonists diluted in PBS. 24 h after treatment cell culture supernatants were harvested and analyzed for induction of cytokines via multiplex ELISAs (Luminex).

hTLR7 = target: T1, hTLR7 (Homo sapiens, UniProt Q9NYK1); assay: HEK Blue hTLR7 cell assay of free TLR7/8 agonists; type: cell-based; details: HEK Blue hTLR7 cells, free agonist
T1 construct: expressed in transfected cells; host or cells: HEK Blue hTLR7 cells
T1 sequence (Q9NYK1 27-1049): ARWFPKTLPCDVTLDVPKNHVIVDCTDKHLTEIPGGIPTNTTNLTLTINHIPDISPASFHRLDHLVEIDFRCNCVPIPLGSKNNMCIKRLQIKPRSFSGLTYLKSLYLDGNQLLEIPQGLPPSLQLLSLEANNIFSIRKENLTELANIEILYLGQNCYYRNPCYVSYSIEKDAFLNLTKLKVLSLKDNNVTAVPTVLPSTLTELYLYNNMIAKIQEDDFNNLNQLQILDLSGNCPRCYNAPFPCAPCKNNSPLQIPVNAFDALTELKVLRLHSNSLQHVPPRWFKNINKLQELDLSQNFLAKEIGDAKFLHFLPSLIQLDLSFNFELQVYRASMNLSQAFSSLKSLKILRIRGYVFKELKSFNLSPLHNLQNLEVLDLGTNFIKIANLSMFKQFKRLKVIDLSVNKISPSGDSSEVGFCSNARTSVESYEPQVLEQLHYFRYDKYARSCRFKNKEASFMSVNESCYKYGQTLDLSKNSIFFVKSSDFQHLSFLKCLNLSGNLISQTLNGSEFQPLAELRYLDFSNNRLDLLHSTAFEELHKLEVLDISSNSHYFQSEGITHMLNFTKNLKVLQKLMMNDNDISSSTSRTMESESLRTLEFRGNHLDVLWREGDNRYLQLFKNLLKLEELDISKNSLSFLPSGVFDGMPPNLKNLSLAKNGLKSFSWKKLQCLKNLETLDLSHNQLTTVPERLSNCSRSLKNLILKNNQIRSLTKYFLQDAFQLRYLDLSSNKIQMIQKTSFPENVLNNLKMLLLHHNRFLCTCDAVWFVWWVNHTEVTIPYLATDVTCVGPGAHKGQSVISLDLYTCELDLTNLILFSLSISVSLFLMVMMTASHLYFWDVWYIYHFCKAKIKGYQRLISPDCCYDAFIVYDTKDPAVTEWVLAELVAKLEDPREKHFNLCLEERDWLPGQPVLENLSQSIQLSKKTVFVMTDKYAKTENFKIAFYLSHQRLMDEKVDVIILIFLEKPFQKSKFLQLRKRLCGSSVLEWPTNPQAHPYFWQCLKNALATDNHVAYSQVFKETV
Experimental: This example covers toll-like receptor 7 (TLR7) and toll-like receptor 8 (TLR8) selectivity of imidazoquinoline agonists. Assessment of TLR7 and TLR8 selectivity for the free TLR7/8 agonists was performed using HEK Blue hTLR7 and hTLR8 cells over a large dose range of compounds. […] Activities were determined based on calculated EC50 (in μM) in each cell line, and are summarized in TABLE 4 below, with columns providing targets and rows providing compounds.

Q: With `CCCCc1nc2c(N)nc3cc(C(=O)OC)ccc3c2n1Cc1ccc(CNC(=O)OCc2ccc(O[C@H]3O[C@H](CO)[C@@H](O)[C@H](O)[C@@H]3O)c(NC(=O)CCNC(=O)[C@H](CCCCNC(=O)CCOCCOCCOCCOCCOCCOCCOCCOCCOCCOCCOCCOC)NC(=O)CCN3C(=O)C=CC3=O)c2)cc1` [Compound 4, methyl 4-amino-2-butyl-1-(4-(((((3-((S)-44-(3-(2,5-dioxo-2,5-dihydro-1H-pyrrol-1-yl)propanamido)-38,45-dioxo-2,5,8,11,14,17,20,23,26,29,32,35-dodecaoxa-39,46-diazanonatetracontan-49-amido)-4-(((2R,3 S,4 S, 5 S,6R)-3,4,5-trihydroxy-6-(hydroxymethyl)tetrahydro-2H-pyran-2-yl)oxy)benzyl)oxy)carbonyl)amino)methyl)benzyl)-1H-imidazo[4,5-c]quinoline-7-carboxylate] as the molecule, how does the “tumor growth delay and survival” value (CT26 tumors) read?
A: The value was “some tumor growth delay and survival benefit”.

Q: And the “mice surviving at the end of the study” value (CT26 tumors)?
A: Its value is “⅙”.

Q: What does the source list for `CCCCc1nc2c(N)nc3cc(C(=O)OC)ccc3c2n1CCCCCNC(=O)OCc1ccc(O[C@H]2O[C@H](CO)[C@@H](O)[C@H](O)[C@@H]2O)c(NC(=O)CCNC(=O)[C@H](CCCCNC(=O)CCOCCOCCOCCOCCOCCOCCOCCOCCOCCOCCOCCOC)NC(=O)CCN2C(=O)C=CC2=O)c1` [Compound 7, Methyl 4-amino-2-butyl-1-(5-((((3-((S)-44-(3-(2,5-dioxo-2,5-dihydro-1H-pyrrol-1-yl)propanamido)-38,45-dioxo-2,5,8,11,14,17,20,23,26,29,32,35-dodecaoxa-39,46-diazanonatetracontan-49-amido)-4-(((2R,3 S,4 S, 5 S,6R)-3,4,5-trihydroxy-6-(hydroxymethyl)tetrahydro-2H-pyran-2-yl)oxy)benzyl)oxy)carbonyl)amino)pentyl)-1H-imidazo[4,5-c]quinoline-7-carboxylate]?
A: tumor growth delay and survival (CT26 tumors): some tumor growth delay over the untreated group; mice surviving at the end of the study (CT26 tumors): no animals ultimately survived

Q: `CCCCc1nc2c(N)nc3cc(C(=O)O)ccc3c2n1CCCCCNC(=O)OCc1ccc(O[C@H]2O[C@H](CO)[C@@H](O)[C@H](O)[C@@H]2O)c(NC(=O)CCNC(=O)[C@H](CCCCNC(=O)CCOCCOCCOCCOCCOCCOCCOCCOCCOCCOCCOCCOC)NC(=O)CCN2C(=O)C=CC2=O)c1` [Compound 8, 4-amino-2-butyl-1-(5-((((3-((S)-44-(3-(2,5-dioxo-2,5-dihydro-1H-pyrrol-1-yl)propanamido)-38,45-dioxo-2,5,8,11,14,17,20,23,26,29,32,35-dodecaoxa-39,46-diazanonatetracontan-49-amido)-4-(((2R,3 S,4 S, 5 S,6R)-3,4,5-trihydroxy-6-(hydroxymethyl)tetrahydro-2H-pyran-2-yl)oxy)benzyl)oxy)carbonyl)amino)pentyl)-1H-imidazo[4,5-c]quinoline-7-carboxylic acid] was tested. Which “tumor growth delay and survival” value (CT26 tumors) did it give?
A: The value was “greatly increased tumor growth delay and survival”.

Q: How did the “tumor growth delay and survival” value (CT26 tumors) turn out when `CCCCc1nc2c(N)nc3cc(C(=O)O)ccc3c2n1Cc1ccc(C[N+](C)(C)Cc2ccc(O[C@H]3O[C@H](CO)[C@@H](O)[C@H](O)[C@@H]3O)c(NC(=O)CCNC(=O)[C@H](CCCCNC(=O)CCOCCOCCOCCOCCOCCOCCOCCOCCOCCOCCOCCOC)NC(=O)CCN3C(=O)C=CC3=O)c2)cc1` [Compound 9, N-(4-((4-amino-2-butyl-7-carboxy-1H-imidazo[4,5-c]quinolin-1-yl)methyl)benzyl)-1-(3-((S)-44-(3-(2,5-dioxo-2,5-dihydro-1H-pyrrol-1-yl)propanamido)-38,45-dioxo-2,5,8,11,14,17,20,23,26,29,32,35-dodecaoxa-39,46-diazanonatetracontan-49-amido)-4-(((2R,3 S,4 S, 5 S,6R)-3,4,5-trihydroxy-6-(hydroxymethyl)tetrahydro-2H-pyran-2-yl)oxy)phenyl)-N,N-dimethylmethanaminium] was run?
A: The value was “potent tumor growth delay and a long-term overall survival benefit”.

Q: What about the “anti-tumor activity (tumor volume, survival)” value (Renca tumors) of the same molecule?
A: Its value is “greatest potency; also recorded: superior potency”.

Q: With `CCCCc1nc2c(N)nc3cc(C(=O)O)ccc3c2n1Cc1ccc(C[N+](C)(C)Cc2ccc(O[C@H]3O[C@H](CO)[C@@H](O)[C@H](O)[C@@H]3O)c(NC(=O)CCNC(=O)CCN3C(=O)C=CC3=O)c2)cc1` [Compound 14, N-(4-((4-amino-2-butyl-7-carboxy-1H-imidazo[4,5-c]quinolin-1-yl)methyl)benzyl)-1-(3-(3-(3-(2,5-dioxo-2,5-dihydro-1H-pyrrol-1-yl)propanamido)propanamido)-4-(((2R,3S,4S,5S,6R)-3,4,5-trihydroxy-6-(hydroxymethyl)tetrahydro-2H-pyran-2-yl)oxy)phenyl)-N,N-dimethylmethanaminium] as the molecule, how does the “anti-tumor activity (tumor volume, survival)” value (Renca tumors) read?
A: Its value is “greatest potency”.

Q: `CCCCc1nc2c(N)nc3cc(C(=O)O)ccc3c2n1CC(C)O` (centres unmarked) [S5b] was tested. Which “IFNα, IL1β, MIP1β, TNFα induction, C7 carboxylic acid vs parent C7 methyl ester” value (primary human PBMCs; free drug, FIG. 3) did it give?
A: Its value is “markedly lower potency and activity than its corresponding parent methyl ester compound”.

Q: For `CCCCc1nc2c(N)nc3cc(C(=O)OC)ccc3c2n1Cc1ccc(CN)cc1` [S8a], which “concentration eliciting cytokine responses (IFNg, IL1β, MIP1β, TNFα)” value (primary human PBMCs; single donor, 24 h, FIG. 1) is on record?
A: Its value is under 0.1 µM.

Q: What does the source list for `CCCCc1nc2c(N)nc3cc(C(=O)OC)ccc3c2n1Cc1ccc(CN2CCCC2)cc1` [S65a]?
A: potency to induce MCP1 and IP10 (primary human PBMCs; free drug, FIG. 30): enhanced potency to induce MCP1 and IP10 compared to compounds S18a; potency and activity of cytokine induction (IL6, TNFα, MCP1, IP10) (primary human PBMCs; free drug, FIG. 30): other two most potent compounds

Q: Which EC50 (hTLR7) does the source give for `CCCCc1nc2c(N)nc3cc(C(=O)OC)ccc3c2n1CCc1ccc(CN)cc1` [S76a] here?
A: Its EC50 is 3.44 µM.

Q: Which EC50 (hTLR7) does the source give for `CCCCc1nc2c(N)nc3cc(C(=O)OC)ccc3c2n1CCCCCN(C)C` [S77a] here?
A: Its EC50 is 2.82 µM.

Q: How did the EC50 (hTLR7) turn out when `COCCc1nc2c(N)nc3cc(C(=O)OC)ccc3c2n1Cc1ccc(CN)cc1` [S78a] was run?
A: Its EC50 is 3.78 µM.

Q: Which results are given for `CCCCc1nc2c(N)nc3cc(C(=O)OC)ccc3c2n1Cc1ccc(CN2CCOCC2)cc1` [S81a]?
A: maximal level of IL6, MCP1 and IP10 (primary human PBMCs; free drug, FIG. 30): same maximal level of IL6, MCP1 and IP10 as the other compounds; maximum level of IL10, IL1b or TNFα (primary human PBMCs; free drug, FIG. 30): not able to reach the same maximum level; potency and activity of cytokine induction (IL6, TNFα, MCP1, IP10) (primary human PBMCs; free drug, FIG. 30): greater activity than compound S82a; TLR7 vs TLR8 binding profile (primary human PBMCs; inferred from the cytokine profile): TLR7 vs TLR8 skewed binding profile

Q: `CCCCc1nc2c(N)nc3cc(C(=O)O)ccc3c2[nH]1` [S82b] was tested. Which “potency and activity of cytokine induction (IL6, TNFα, MCP1, IP10)” value (primary human PBMCs; free drug, FIG. 30) did it give?
A: The value was “greater activity than compound S84a”.

Q: `CCCCc1nc2c(N)nc3cc(C(=O)OC)ccc3c2n1Cc1ccc(CN(CC)CC)cc1` [S83a] was tested. Which “potency to activate human PBMCs (IL6, IL1b, MIP1b, TNFα)” value (primary human PBMCs; free drug) did it give?
A: The value was “slightly enhanced potency”.

Q: What about the “potency and activity of cytokine induction (IL6, TNFα, MCP1, IP10)” value (primary human PBMCs; free drug, FIG. 30) of the same molecule?
A: Its value is “highest maximal cytokine and potency to induce cytokine of all compounds tested”.

Q: For `CCCCc1nc2c(N)nc3cc(C(=O)OC)ccc3c2n1Cc1ccc(CN2CCCCC2)cc1` [S85a], which “potency to activate human PBMCs (IL6, IL1b, MIP1b, TNFα)” value (primary human PBMCs; free drug) is on record?
A: Its value is “slightly decreased potency”.
